# Source: US20240360177A1, “PEPTIDES WITH ANTIMICROBIAL ACTIVITIES” (priority 2021, published 2024)
# Non-standard residues stand in square brackets, D forms with d. Residues, ends and D or L forms follow the SMILES beside them. hLeu = CC(C)CC[C@H](N)C(=O)O; Ava = NCCCCC(=O)O
# What was measured:
# Conditions in all cases: 24 h
# C. auris = test system: C. auris
# C. dubliniensis = test system: C. dubliniensis
# C. glabrata = test system: C. glabrata
# C. tropicalis = test system: C. tropicalis
# C. krusei = test system: C. krusei
# C. parapsilosis = test system: C. parapsilosis
# C. albicans = test system: C. albicans
compound,measurement,setting,value
"N=C(N)NCCC[C@@H](N)C(=O)N[C@@H](CCCNC(=N)N)C(=O)N[C@H](CCCNC(=N)N)C(=O)N[C@@H](CCCNC(=N)N)C(=O)NCCCCC(=O)N[C@H](CCCNC(=N)N)C(=O)N[C@@H](CCCNC(=N)N)C(=O)N[C@H](CCCNC(=N)N)C(=O)N[C@@H](CCCNC(=N)N)C(=O)NCCCCC(=O)N[C@H](CCCNC(=N)N)C(=O)N[C@@H](CCCNC(=N)N)C(=O)N[C@H](CCCNC(=N)N)C(=O)NCCCCC(=O)N[C@H](CCCNC(=N)N)C(=O)N[C@@H](CCCNC(=N)N)C(=O)N[C@H](CCCNC(=N)N)C(N)=O [SEQ ID NO: 21, rRrR-(Ava)-rRrR-(Ava)-rRr-(Ava)-rRr-NH2] (H-[dR]R[dR]R[Ava][dR]R[dR]R[Ava][dR]R[dR][Ava][dR]R[dR]-NH2)",MIC C. auris,C. auris,0.5 µg/mL
same,MIC C. dubliniensis,C. dubliniensis,0.5 µg/mL
same,MIC C. glabrata,C. glabrata,0.5 µg/mL
same,MIC C. tropicalis,C. tropicalis,0.5 µg/mL
same,MIC C. krusei,C. krusei,0.5 µg/mL
same,MIC C. parapsilosis,C. parapsilosis,0.25 µg/mL
same,MIC C. albicans,C. albicans,0.5 µg/mL
"CC(C)CC[C@H](N)C(=O)N[C@@H](CCCNC(=N)N)C(=O)N[C@H](CCCNC(=N)N)C(=O)N1CCC[C@H]1C(=O)N[C@H](CCCNC(=N)N)C(=O)N[C@@H](CCCNC(=N)N)C(=O)N[C@H](CCCNC(=N)N)C(=O)N1CCC[C@H]1C(=O)N[C@H](CCCNC(=N)N)C(=O)N[C@@H](CCCNC(=N)N)C(=O)N[C@H](CCCNC(=N)N)C(=O)N[C@@H](CCCNC(=N)N)C(=O)N1CCC[C@H]1C(=O)N[C@H](CCCNC(=N)N)C(=O)N[C@@H](CCCNC(=N)N)C(=O)N[C@H](CCCNC(=N)N)C(=O)N[C@@H](CCCNC(=N)N)C(N)=O [SEQ ID NO: 94, (hLeu)Rr-P-rRr-P-rRrR-P-rRrR-NH2] (H-[hLeu]R[dR]P[dR]R[dR]P[dR]R[dR]RP[dR]R[dR]R-NH2)",MIC C. auris,C. auris,1 µg/mL
same,MIC C. dubliniensis,C. dubliniensis,0.5 µg/mL
same,MIC C. glabrata,C. glabrata,0.5 µg/mL
same,MIC C. tropicalis,C. tropicalis,0.5 µg/mL
same,MIC C. krusei,C. krusei,1 µg/mL
same,MIC C. parapsilosis,C. parapsilosis,0.25 µg/mL
same,MIC C. albicans,C. albicans,0.5 µg/mL
"N=C(N)NCCC[C@@H](N)C(=O)N[C@@H](CCCNC(=N)N)C(=O)N[C@H](CCCNC(=N)N)C(=O)NCCCCC(=O)N[C@H](CCCNC(=N)N)C(=O)N[C@@H](CCCNC(=N)N)C(=O)N[C@H](CCCNC(=N)N)C(=O)NCCCCC(=O)N[C@H](CCCNC(=N)N)C(=O)N[C@@H](CCCNC(=N)N)C(=O)N[C@H](CCCNC(=N)N)C(=O)N[C@@H](CCCNC(=N)N)C(=O)NCCCCC(=O)N[C@H](CCCNC(=N)N)C(=O)N[C@@H](CCCNC(=N)N)C(=O)N[C@H](CCCNC(=N)N)C(=O)N[C@@H](CCCNC(=N)N)C(=O)O [SEQ ID NO: 19, rRr-(Ava)-rRr-(Ava)-rRrR-(Ava)-rRrR] (H-[dR]R[dR][Ava][dR]R[dR][Ava][dR]R[dR]R[Ava][dR]R[dR]R-OH)",MIC C. auris,C. auris,2 µg/mL
same,MIC C. dubliniensis,C. dubliniensis,0.5 µg/mL
same,MIC C. glabrata,C. glabrata,0.5 µg/mL
same,MIC C. tropicalis,C. tropicalis,0.5 µg/mL
same,MIC C. krusei,C. krusei,1 µg/mL
same,MIC C. parapsilosis,C. parapsilosis,0.25 µg/mL
same,MIC C. albicans,C. albicans,0.5 µg/mL
"N=C(N)NCCC[C@@H](N)C(=O)N[C@@H](CCCNC(=N)N)C(=O)N[C@H](CCCNC(=N)N)C(=O)N1CCC[C@H]1C(=O)N[C@H](CCCNC(=N)N)C(=O)N[C@@H](CCCNC(=N)N)C(=O)N[C@H](CCCNC(=N)N)C(=O)N1CCC[C@H]1C(=O)N[C@H](CCCNC(=N)N)C(=O)N[C@@H](CCCNC(=N)N)C(=O)N[C@H](CCCNC(=N)N)C(=O)N[C@@H](CCCNC(=N)N)C(=O)N1CCC[C@H]1C(=O)N[C@H](CCCNC(=N)N)C(=O)N[C@@H](CCCNC(=N)N)C(=O)N[C@H](CCCNC(=N)N)C(=O)N[C@@H](CCCNC(=N)N)C(=O)O [SEQ ID NO: 54, rRr-P-rRr-P-rRrR-P-rRrR] (H-[dR]R[dR]P[dR]R[dR]P[dR]R[dR]RP[dR]R[dR]R-OH)",MIC C. auris,C. auris,2 µg/mL
same,MIC C. dubliniensis,C. dubliniensis,0.5 µg/mL
same,MIC C. glabrata,C. glabrata,0.5 µg/mL
same,MIC C. tropicalis,C. tropicalis,0.25 µg/mL
same,MIC C. krusei,C. krusei,0.5 µg/mL
same,MIC C. parapsilosis,C. parapsilosis,0.25 µg/mL
same,MIC C. albicans,C. albicans,0.25 µg/mL
